In patent US10034871B2, “Salts and compositions useful for treating disease” (REGENTS OF THE UNIVERSITY OF MINNESOTA, priority 2014, dated 2018):

Experiments:
[1] = target: T1, (Mus musculus, UniProt P32300); assay: Tail-flick assay, antagonism of analgesia produced by delta opioid agonists (DPDPE, DEL II); assay type: in vivo, ICR-CD1 mice; conditions: mice, i.c.v.
T1 construct: by the intracerebroventricular (i.c.v.) route of administration to mice; from tissue; host or cells: living ICR-CD1 mice (central nervous system, i.c.v. dosing)
T1 sequence (P32300 whole entry): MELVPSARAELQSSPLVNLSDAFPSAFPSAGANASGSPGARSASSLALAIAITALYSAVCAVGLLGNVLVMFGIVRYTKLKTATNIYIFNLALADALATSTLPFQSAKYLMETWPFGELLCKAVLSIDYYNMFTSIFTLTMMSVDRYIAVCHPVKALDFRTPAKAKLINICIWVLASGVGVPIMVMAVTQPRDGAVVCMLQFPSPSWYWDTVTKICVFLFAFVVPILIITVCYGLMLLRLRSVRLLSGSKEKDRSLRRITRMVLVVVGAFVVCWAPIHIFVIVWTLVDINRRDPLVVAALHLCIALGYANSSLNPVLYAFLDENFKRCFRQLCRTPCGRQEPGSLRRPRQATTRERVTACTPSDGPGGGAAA
Method: (§1) The testing protocol involved the tail-flick assay. For the measurement of the tail-flick latency, ICR-CD1 mice, mice were held gently in one hand with the tail positioned in the apparatus (Tail Flick Analgesia Meter, Columbus Instruments, Columbus, Ohio) for radiant heat stimulus. The tail-flick response was elicited by applying radiant heat to the dorsal side of the tail. The intensity of the heat was set so that the mouse flicks its tail within 2 to 3 seconds. The test latency was measured before treatment of the agonist control, and again after the antagonist treatment at the time of peak agonist activity.
At least three groups of four to ten mice were used for each dose response curve. ED50 values with 95% confidence intervals (C.I.) were computed with GraphPad Prism 4 using nonlinear regression methods. […] Antinociception was quantified as the percent maximal possible effect (% MPE), which is calculated as: % MPE=(Test−Control/10−Control)×100. GNTI.2HCl or GNTI.2LA. […] The data are expressed as bar graphs that indicate the % maximum possible effect (% MPE) of GNTI-.2HCl or GNTI.2LA in antagonizing the analgesia produced by selective kappa opioid agonists (U50488H, Bremazocine, U69593) or delta opioid agonists (DPDPE, DEL II) by the intracerebroventricular (i.c.v.) route of administration to mice.

[2] = target: T2, kappa opioid receptors (Mus musculus, UniProt P33534); assay: Tail-flick assay, antagonism of analgesia produced by selective kappa opioid agonists (U50488H, Bremazocine, U69593); assay type: in vivo, ICR-CD1 mice; conditions: mice, i.c.v.; for antagonism of the analgesia produced by selective kappa opioid agonists (% MPE): agonists U50488H, Bremazocine, U69593
T2 construct: from tissue; host or cells: living ICR-CD1 mice (central nervous system, i.c.v. dosing)
T2 sequence (P33534 whole entry): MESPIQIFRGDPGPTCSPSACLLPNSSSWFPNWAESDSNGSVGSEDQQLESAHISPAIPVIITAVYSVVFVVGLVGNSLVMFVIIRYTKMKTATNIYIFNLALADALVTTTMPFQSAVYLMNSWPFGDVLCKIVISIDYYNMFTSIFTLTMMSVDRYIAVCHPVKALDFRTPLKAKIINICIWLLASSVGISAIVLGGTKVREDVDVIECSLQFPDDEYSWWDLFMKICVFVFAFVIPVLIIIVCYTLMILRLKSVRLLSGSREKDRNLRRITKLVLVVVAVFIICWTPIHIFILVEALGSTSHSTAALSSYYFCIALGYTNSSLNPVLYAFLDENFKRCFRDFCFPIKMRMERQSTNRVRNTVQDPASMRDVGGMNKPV
Method: as §1
At least three groups of four to ten mice were used for each dose response curve. ED50 values with 95% confidence intervals (C.I.) were computed with GraphPad Prism 4 using nonlinear regression methods. […] Antinociception was quantified as the percent maximal possible effect (% MPE), which is calculated as: % MPE=(Test−Control/10−Control)×100. GNTI.2HCl or GNTI.2LA. The data for the dihydrochloride salt (Sigma GNTI2HCl) and the di-lipoic acid salt, GNTI.2LA (identified as WY-120) are shown in FIGS. 1 and 2. The data are expressed as bar graphs that indicate the % maximum possible effect (% MPE) of GNTI-.2HCl or GNTI.2LA in antagonizing the analgesia produced by selective kappa opioid agonists (U50488H, Bremazocine, U69593) or delta opioid agonists (DPDPE, DEL II) by the intracerebroventricular (i.c.v.) route of administration to mice.

[3] = tested on: insulin sensitivity; conditions: 72 patients with type 2 diabetes, oral administration, after four weeks of treatment; cited from earlier work
[4] = tested on: insulin sensitivity; conditions: 20 patients with type 2 diabetes, intravenous infusion for ten days, measured 24 hours after the last infusion; cited from earlier work
[5] = tested on: insulin-stimulated glucose disposal; conditions: 13 patients with type 2 diabetes, single intravenous infusion; cited from earlier work

Row | Structure (SMILES) | antagonism of the analgesia produced by delta opioid agonists (% MPE) [1] | antagonism of the analgesia produced by selective kappa opioid agonists (% MPE) [2] | improvement of insulin sensitivity [3] | insulin sensitivity [4] | improvement of insulin-stimulated glucose disposal compared to a placebo infusion [5] | kappa opioid antagonist selectivity compared with GNTI.2HCl ([2]; kappa versus delta agonists)
1 | Cl.Cl.NC(N)=Nc1ccc2[nH]c3c(c2c1)C[C@@]1(O)[C@H]2Cc4ccc(O)c5c4[C@@]1(CCN2CC1CC1)[C@H]3O5 [GNTI.2HCI] | not significantly affected | selectively antagonize the different kappa agonists | – | – | – | –
2 | O=C(O)CCCCC1CCSS1 (centres unmarked) [LA, 1,2-dithiolane-3-pentanoic acid] | – | – | 25% | improved insulin sensitivity | 50% | –
3 | N=C(N)Nc1ccc2[nH]c3c(c2c1)C[C@@]1(O)C2Cc4ccc(O)c5c4[C@@]1(CCN2CC1CC1)[C@H]3O5 [GNTI.2LA, GNTI Dilipoate] | not significantly affected | selectively antagonize the different kappa agonists | – | – | – | not significantly different
